{"source": "ChEMBL document CHEMBL3885861", "about": "“Open TG-GATES”", "species_on_record": "Rattus norvegicus", "test": "Open TG-GATES - Regimen: Daily Repeat", "format": "toxicity, organism-based, Sprague-Dawley", "set-up": "regimen Daily Repeat, gender Male, age 6 weeks", "settings": "in vivo, po, 100 mg/kg, route gavage, dose level Low; for APTT / Bas / Eos / Fbg / Hb / Ht / Lym / MCH / MCHC / MCV / Mono / Neu / PT / Plat / RBC / Ret / WBC: tissue Blood", "key": {"[1]": {"settings": "72 h, tissue Kidney, time 3 day"}, "[2]": {"settings": "72 h, tissue Plasma, time 3 day"}}, "data": [{"compound": "CCCCNC(=O)NS(=O)(=O)c1ccc(C)cc1", "note": "[TOLBUTAMIDE]", "values": [{"measurement": "TERMINAL_BW", "setting": "72 h, time 3 day", "value": 233.9, "unit": "g"}, {"measurement": "APTT", "setting": "72 h, time 3 day", "value": 20.4, "unit": "s"}, {"measurement": "Bas", "setting": "72 h, time 3 day", "value": 0.2, "unit": "%"}, {"measurement": "Eos", "setting": "72 h, time 3 day", "value": 1.2, "unit": "%"}, {"measurement": "Fbg", "setting": "72 h, time 3 day", "value": 283.2, "unit": "mg/dL"}, {"measurement": "Hb", "setting": "72 h, time 3 day", "value": 13.7, "unit": "g/dL"}, {"measurement": "Ht", "setting": "72 h, time 3 day", "value": 42, "unit": "%"}, {"measurement": "Lym", "setting": "72 h, time 3 day", "value": 80.2, "unit": "%"}, {"measurement": "MCH", "setting": "72 h, time 3 day", "value": 20.2, "unit": "pg"}, {"measurement": "MCHC", "setting": "72 h, time 3 day", "value": 32.7, "unit": "%"}, {"measurement": "MCV", "setting": "72 h, time 3 day", "value": 61.9, "unit": "fL"}, {"measurement": "Mono", "setting": "72 h, time 3 day", "value": 2.2, "unit": "%"}, {"measurement": "Neu", "setting": "72 h, time 3 day", "value": 15.8, "unit": "%"}, {"measurement": "PT", "setting": "72 h, time 3 day", "value": 13.2, "unit": "s"}, {"measurement": "Plat", "setting": "72 h, time 3 day", "value": 118.8, "unit": "x10_4/uL"}, {"measurement": "RBC", "setting": "72 h, time 3 day", "value": 680.4, "unit": "x10_4/ul"}, {"measurement": "Ret", "setting": "72 h, time 3 day", "value": 5.8, "unit": "%"}, {"measurement": "WBC", "setting": "72 h, time 3 day", "value": 98.1, "unit": "x10_2/uL"}, {"measurement": "KIDNEY_L", "setting": "[1]", "value": 1, "unit": "g"}, {"measurement": "KIDNEY_R", "setting": "[1]", "value": 1, "unit": "g"}, {"measurement": "KIDNEY_TOTAL", "setting": "[1]", "value": 2, "unit": "g"}, {"measurement": "LIVER", "setting": "72 h, tissue Liver, time 3 day", "value": 11.3, "unit": "g"}, {"measurement": "A/G", "setting": "[2]", "value": 0.9}, {"measurement": "ALP", "setting": "[2]", "value": 1905.6, "unit": "IU/L"}, {"measurement": "ALT", "setting": "[2]", "value": 46.2, "unit": "IU/L"}, {"measurement": "AST", "setting": "[2]", "value": 73.8, "unit": "IU/L"}, {"measurement": "BUN", "setting": "[2]", "value": 15, "unit": "mg/dL"}, {"measurement": "CRE", "setting": "[2]", "value": 0.2, "unit": "mg/dL"}, {"measurement": "Ca", "setting": "[2]", "value": 11.1, "unit": "mg/dL"}, {"measurement": "Cl", "setting": "[2]", "value": 104.6, "unit": "meq/L"}, {"measurement": "DBIL", "setting": "[2]", "value": 0.01, "unit": "mg/dL"}, {"measurement": "GLC", "setting": "[2]", "value": 180.4, "unit": "mg/dL"}, {"measurement": "IP", "setting": "[2]", "value": 8.4, "unit": "mg/dL"}, {"measurement": "K", "setting": "[2]", "value": 3.9, "unit": "meq/L"}, {"measurement": "LDH", "setting": "[2]", "value": 68.8, "unit": "IU/L"}, {"measurement": "Na", "setting": "[2]", "value": 142.6, "unit": "meq/L"}, {"measurement": "PL", "setting": "[2]", "value": 156.4, "unit": "mg/dL"}, {"measurement": "RALB", "setting": "[2]", "value": 2.6, "unit": "g/dL"}, {"measurement": "TBIL", "setting": "[2]", "value": 0.058, "unit": "mg/dL"}, {"measurement": "TC", "setting": "[2]", "value": 77, "unit": "mg/dL"}, {"measurement": "TG", "setting": "[2]", "value": 99.4, "unit": "mg/dL"}, {"measurement": "TP", "setting": "[2]", "value": 5.5, "unit": "g/dL"}, {"measurement": "gamma-GTP", "setting": "[2]", "value": 1, "unit": "IU/L"}, {"measurement": "TERMINAL_BW", "setting": "[…], time 7 day", "value": 273.5, "unit": "g"}, {"measurement": "TERMINAL_BW", "setting": "[…], time 14 day", "value": 313.3, "unit": "g"}, {"measurement": "TERMINAL_BW", "setting": "[…], time 28 day", "value": 400.3, "unit": "g"}, {"measurement": "APTT", "setting": "[…], time 7 day", "value": 16.9, "unit": "s"}, {"measurement": "Bas", "setting": "[…], time 7 day", "value": 0, "unit": "%"}, {"measurement": "Eos", "setting": "[…], time 7 day", "value": 1, "unit": "%"}, {"measurement": "Fbg", "setting": "[…], time 7 day", "value": 303.2, "unit": "mg/dL"}, {"measurement": "Hb", "setting": "[…], time 7 day", "value": 13.6, "unit": "g/dL"}, {"measurement": "Ht", "setting": "[…], time 7 day", "value": 40.9, "unit": "%"}, {"measurement": "Lym", "setting": "[…], time 7 day", "value": 74.4, "unit": "%"}, {"measurement": "MCH", "setting": "[…], time 7 day", "value": 20.4, "unit": "pg"}, {"measurement": "MCHC", "setting": "[…], time 7 day", "value": 33.2, "unit": "%"}, {"measurement": "MCV", "setting": "[…], time 7 day", "value": 61.4, "unit": "fL"}, {"measurement": "Mono", "setting": "[…], time 7 day", "value": 2, "unit": "%"}, {"measurement": "Neu", "setting": "[…], time 7 day", "value": 21.8, "unit": "%"}, {"measurement": "PT", "setting": "[…], time 7 day", "value": 12.5, "unit": "s"}, {"measurement": "Plat", "setting": "[…], time 7 day", "value": 130, "unit": "x10_4/uL"}, {"measurement": "RBC", "setting": "[…], time 7 day", "value": 667, "unit": "x10_4/ul"}, {"measurement": "Ret", "setting": "[…], time 7 day", "value": 5.4, "unit": "%"}, {"measurement": "WBC", "setting": "[…], time 7 day", "value": 123.8, "unit": "x10_2/uL"}, {"measurement": "APTT", "setting": "[…], time 14 day", "value": 18.6, "unit": "s"}, {"measurement": "Bas", "setting": "[…], time 14 day", "value": 0.2, "unit": "%"}, {"measurement": "Eos", "setting": "[…], time 14 day", "value": 0.8, "unit": "%"}, {"measurement": "Fbg", "setting": "[…], time 14 day", "value": 284.2, "unit": "mg/dL"}, {"measurement": "Hb", "setting": "[…], time 14 day", "value": 14.2, "unit": "g/dL"}, {"measurement": "Ht", "setting": "[…], time 14 day", "value": 43.5, "unit": "%"}, {"measurement": "Lym", "setting": "[…], time 14 day", "value": 81, "unit": "%"}, {"measurement": "MCH", "setting": "[…], time 14 day", "value": 19.5, "unit": "pg"}, {"measurement": "MCHC", "setting": "[…], time 14 day", "value": 32.6, "unit": "%"}, {"measurement": "MCV", "setting": "[…], time 14 day", "value": 60, "unit": "fL"}, {"measurement": "Mono", "setting": "[…], time 14 day", "value": 1.8, "unit": "%"}, {"measurement": "Neu", "setting": "[…], time 14 day", "value": 15.8, "unit": "%"}, {"measurement": "PT", "setting": "[…], time 14 day", "value": 13.2, "unit": "s"}, {"measurement": "Plat", "setting": "[…], time 14 day", "value": 120.7, "unit": "x10_4/uL"}, {"measurement": "RBC", "setting": "[…], time 14 day", "value": 726.6, "unit": "x10_4/ul"}, {"measurement": "Ret", "setting": "[…], time 14 day", "value": 4.1, "unit": "%"}, {"measurement": "WBC", "setting": "[…], time 14 day", "value": 100.3, "unit": "x10_2/uL"}, {"measurement": "APTT", "setting": "[…], time 28 day", "value": 17.5, "unit": "s"}, {"measurement": "Bas", "setting": "[…], time 28 day", "value": 0.6, "unit": "%"}, {"measurement": "Eos", "setting": "[…], time 28 day", "value": 1.2, "unit": "%"}, {"measurement": "Fbg", "setting": "[…], time 28 day", "value": 287.2, "unit": "mg/dL"}, {"measurement": "Hb", "setting": "[…], time 28 day", "value": 15.6, "unit": "g/dL"}, {"measurement": "Ht", "setting": "[…], time 28 day", "value": 46.6, "unit": "%"}]}]}
